Measured values as given in patent US9187486B2 (AMGEN INC., priority 2011, dated 2015).
Read-outs that look alike come from different tables or passages of the source.

Tests used:
[1] = molecular target: Pim-2 (Homo sapiens (Human), UniProt Q9P1W9); assay: Pim enzyme assay (HTRF, phosphorylation of biotinylated-BAD (S112) peptide), Pim-2; type: biochemical
Excerpt: (§1) Full-length human cDNAs encoding Pim-1 (MGC ID 3913552) or Pim-2 (IMAGE ID 5092935) were purchased from Invitrogen, Carlsbad, Calif. These cDNAs were used as templates in PCR reactions to produce full-length DNA clones of the PIMs. Oligonucleotide PCR primers for Pim-1 were 5′-[…]-3′ and 5′-[…]-3′. Oligonucleotide PCR primers for Pim-2 were 5′-[…]-3′ and 5′-[…]-3′. PCR products were digested with BclI and EcoRI for Pim-1 and BamHI and EcoRI for Pim-2 and ligated into a modified baculovirus transfer vector (pFastBac 1) cleaved with BamHI and EcoRI. For bacterial expression, the same cleaved PCR products encoding Pim-1 or Pim-2 were ligated into a modified E. coli expression vector pET28(a) cleaved with BamHI and EcoRI. Amino-terminal hexahistidine tags followed by a thrombin cleavage site were previously added to the vectors using standard methods of molecular biology. Recombinant baculoviruses expressing Pim-1 or Pim-2 were made using standard methods (Fastbac manual, Invitrogen, Carlsbad, Calif.). Infection of Sf9 cells was done at an m.o.i. of greater than 5 for 24-48 h. Cells were harvested by centrifugation and frozen at −80 C. For E. coli expression, cells carrying pET28-His6-Th-Pim-1 or pET28-His6-Th-Pim-2 were picked from a single colony and grown o/n in LB media. The o/n culture was used to inoculate a 2 liter flask with 500 mL media. This was grown o/n and used to inoculate 15-20 liters of Terrific Broth in a New Brunswick Scientific fermentor. The E. coli were grown at 37° C. to and OD600>1.6. The temperature was dropped to 18° C. and o/n expression was induced with 0.5 mM IPTG. Cells were harvested by centrifugation and frozen at −80° C.
(§2) The frozen cell pellets were thawed by stirring in chilled lysis buffer (0.05 M HEPES, pH 8.0, 0.25 M NaCl, 0.01 M 2-mercaptoethanol, 10% (w/v) glycerol, 0.5% (v/v) protease inhibitor cocktail (Sigma P-8340) at a ratio of 1 L/200 g cells until homogeneous. The thawed suspension was applied to a microfluidizer at 10,000 PSI to disrupt the cells and the whole lysates were clarified by centrifugation at 50,000×g for 90 min, 4° C. Imidazole was added to the clarified lysate to a final concentration of 2.5 mM and the lysate was mixed with 10 mL of Talon resin (Clontech) and the slurry rocked gently overnight at 4° C. The slurry was centrifuged at 1,000×g for 5 min, the supernatant decanted, and the resin suspended in 40 mL of lysis wash buffer (lysis buffer at 0.75 M NaCl). This step was repeated 3× and the resin was transferred to a 2.5 cm glass column. Ten column volumes of wash buffer (0.05 M HEPES, pH 8.0, 0.1 M NaCl, 0.01 M 2-mercaptoethanol, 10% (w/v) glycerol) were applied to the resin followed by 10 column volumes of elution buffer (0.05 M HEPES, pH 8.0, 0.25 M NaCl, 0.01 M 2-mercaptoethanol, 10% (w/v) glycerol, 0.1 M imidazole). Fractions were analyzed by SDS-PAGE and those containing the protein of interest were pooled and concentrated. The concentrated protein was applied to an Amersham Superdex 75 (XK 26/60) column equilibrated in 0.025 M Tris-HCl, pH 7.5, 0.1 M NaCl, 0.01 M 2-mercaptoethanol, 10% (w/v) glycerol. […] Fractions containing the monomeric protein of interest were pooled, concentrated to ˜2 mg/mL, and stored at −80° C.
(§3) The phosphorylation of biotinylated-BAD (S112) peptide by full length recombinant Pim-1, Pim-2, or Pim-3 protein was detected with streptavidin:Allophycocyanin (APC) conjugate and a europium (Eu) labeled antibody directed against phosphorylated-BAD (S112). Excitation of Eu by a high energy laser light (337 nm) leads to a transfer of energy to the APC molecule, and results in an emission at 665 nm. The fluorescence is directly proportional to the amount of phosphorylated BAD peptide present in the reaction.

[2] = molecular target: Pim-1 (Homo sapiens (Human), UniProt P11309); assay: Pim enzyme assay (HTRF, phosphorylation of biotinylated-BAD (S112) peptide), Pim-1; type: biochemical; conditions: full length recombinant Pim-1, biotinylated-BAD (S112) peptide, HTRF
Excerpt: as §1, §2, §3

[3] = system: KMS-12-BM myeloma cell line; assay: Pim cell assay: phospho-BAD (S112) and total BAD in KMS-12-BM cells; type: cell-based; conditions: 1 hour and 50 minutes incubation
Description: The KMS-12-BM myeloma cell line was used to determine the in vitro cellular inhibition of Pim kinases. Disruption of Pim signaling by Pim inhibitors was determined by measuring the levels of phospho-BAD (S112) and total BAD. […] The cells were then incubated overnight at 37° C., 5% CO2. […] In addition to the 10-point dosing curve of the test compound, DMSO alone was run as a control. This dilution in DMSO was then diluted again into cell growth medium. Aliquots (11.1 uL) of the compound diluted in growth medium were then transferred to the appropriate wells of the 96-well plates containing cells to yield a final DMSO concentration of 0.3%. The cell plates were then incubated with compound for 1 hour and 50 minutes at 37° C., 5% CO2. After the 1 hour and 50 min incubation, the cell plates were spun at 1000 RPM for 10 minutes and the compound-containing medium was removed. […] The cell plates containing lysis buffer were then immediately stored at −70° C. These prepared lysates were then assayed for phospho-(S112) and total-BAD according to the manufacturer's protocol (Meso Scale Diagnostics, Cat # K15103D-3). The plates were read on the MSD Sector Imager 6000, and results were calculated according to the assay protocol: ((% Phosphoprotein=((2×Phospho signal)/(Phospho signal+Total signal))×100)).

[4] = full length recombinant Pim-2, biotinylated-BAD (S112) peptide, HTRF, 96-well, read-out: Pim-2 IC50 IP
[5] = 96-well, read-out: Pim-1 IC50 IP
[6] = Homo sapiens, KMS-12-BM, read-out: KMS-12-BM IC50 IP
[7] = full length recombinant Pim-2, biotinylated-BAD (S112) peptide, HTRF, read-out: Pim2_IC50
[8] = Homo sapiens, KMS-12-BM, read-out: KMS12_Cell_IC50

Chain of Pim-1 (P11309 whole entry): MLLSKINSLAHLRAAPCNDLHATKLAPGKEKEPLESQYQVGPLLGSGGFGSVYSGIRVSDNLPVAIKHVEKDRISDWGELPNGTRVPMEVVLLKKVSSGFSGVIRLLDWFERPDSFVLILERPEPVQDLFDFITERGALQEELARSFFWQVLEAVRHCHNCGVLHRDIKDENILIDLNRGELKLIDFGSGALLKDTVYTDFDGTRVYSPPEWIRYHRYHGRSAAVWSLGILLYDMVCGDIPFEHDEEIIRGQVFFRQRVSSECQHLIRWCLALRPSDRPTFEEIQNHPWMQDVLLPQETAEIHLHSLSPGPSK
Chain of Pim-2 (Q9P1W9 whole entry): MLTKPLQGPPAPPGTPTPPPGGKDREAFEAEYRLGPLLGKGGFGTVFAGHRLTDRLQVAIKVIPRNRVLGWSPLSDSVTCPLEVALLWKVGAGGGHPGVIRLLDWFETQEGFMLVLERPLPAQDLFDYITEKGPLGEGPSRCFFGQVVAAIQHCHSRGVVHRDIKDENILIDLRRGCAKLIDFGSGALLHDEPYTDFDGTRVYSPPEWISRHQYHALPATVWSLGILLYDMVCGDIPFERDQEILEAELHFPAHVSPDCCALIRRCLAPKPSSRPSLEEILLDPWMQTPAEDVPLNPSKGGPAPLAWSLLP

| IC50 [1, 4] [nM] | IC50 [2, 5] [nM] | IC50 [3, 6] [nM] | IC50 [1, 7] [nM] | IC50 ([2]; read-out: Pim_1_IC50) [nM] | IC50 [3, 8] [nM] | IC50 ([3]; tris(2,2,2-trifluoroacetate), read-out: KMS-12-BM IC50 IP) [nM] | SMILES | IC50 ([1]; read-out: Pim-2 IC50 IP) [nM] |
| --- | --- | --- | --- | --- | --- | --- | --- | --- |
| 8.8 | 2.7 | 667 |  |  |  |  | O[C@@H]1CCN(c2ccncc2Nc2ncc3ccc(-c4c(F)cccc4F)nn23)C[C@H]1O (single isomer, unassigned) [Example 35, 1-(3-((2-(2,6-difluorophenyl)imidazo[1,5-b]pyridazin-7-yl)amino)-4-pyridinyl)-3,4-trans-piperidinediol] |  |
|  |  |  | 121 | 9 | > 1000 |  | Nc1cccc(-c2ccncc2Nc2ncc3ccc(-c4c(F)cccc4F)nn23)c1 [Example 27, N-(4-(3-aminophenyl)-3-pyridinyl)-2-(2,6-difluorophenyl)imidazo[1,5-b]pyridazin-7-amine] |  |
| 10.9 | 3.4 | 1200 |  |  |  |  | N[C@H]1C[C@@H](F)CN(c2ccncc2Nc2ncc3ccc(-c4ncccc4F)nn23)C1 [Example 53, N-(4-((3S,5R)-3-amino-5-fluoro-1-piperidinyl)-3-pyridinyl)-2-(3-fluoro-2-pyridinyl)imidazo[1,5-b]pyridazin-7-amine] |  |
|  |  |  | 185 | 7 | 21500 |  | Nc1cc(-c2ccncc2Nc2ncc3ccc(-c4c(F)cccc4F)nn23)ccn1 [Example 30, N3′-(2-(2,6-difluorophenyl)imidazo[1,5-b]pyridazin-7-yl)-4,4′-bipyridine-2,3′-diamine] |  |
|  |  |  | 3 | 0.4 | 1760 |  | N[C@H]1CCCN(c2ccncc2Nc2ncc3ccc(-c4ccc(F)cc4F)nn23)C1 [Example 12, N-(4-((3S)-3-amino-1-piperidinyl)-3-pyridinyl)-2-(2,4-difluorophenyl)imidazo[1,5-b]pyridazin-7-amine] |  |
| 15.5 |  | 2600 |  |  |  |  | N[C@@H]1C=C(c2ccncc2Nc2ncc3ccc(-c4c(F)cccc4F)nn23)CC[C@H]1F (racemic) [Example 93, (2,2,2-trifluoroacetate)] |  |
|  |  |  | 3 | 1 | 726 |  | N[C@H]1CCCN(c2ccncc2Nc2ncc3ccc(-c4nccs4)nn23)C1 [Example 8, N-(4-((3S)-3-amino-1-piperidinyl)-3-pyridinyl)-2-(1,3-thiazol-2-yl)imidazo[1,5-b]pyridazin-7-amine] |  |
|  |  |  | 0.08 | 0.04 | 40 |  | C[C@H]1CN(c2ccncc2Nc2ncc3ccc(-c4c(F)cccc4F)nn23)C[C@@H](N)[C@@H]1O [Example 20, (3R,4R,5S)-3-amino-1-(3-((2-(2,6-difluorophenyl)imidazo[1,5-b]pyridazin-7-yl)amino)-4-pyridinyl)-5-methyl-4-piperidinol] |  |
|  |  |  | 12 | 0.9 | 6600 |  | N[C@H]1CCCN(c2ccncc2Nc2ncc3ccc(-c4cccnc4F)nn23)C1 [Example 7, N-(4-((3S)-3-amino-1-piperidinyl)-3-pyridinyl)-2-(2-fluoro-3-pyridinyl)imidazo[1,5-b]pyridazin-7-amine] |  |
| 6.4 | 1.5 | 1760 |  |  |  |  | N[C@H]1CCCN(c2ccncc2Nc2ncc3ccc(-c4ccccn4)nn23)C1 [Example 64, (S)-N-(4-(3-aminopiperidin-1-yl)pyridin-3-yl)-2-(pyridin-2-yl)imidazo[1,5-b]pyridazin-7-amine] |  |
| 5.3 | 3.5 | 1350 |  |  |  |  | CN(C)C(=O)c1ccc(F)c(-c2ccc3cnc(Nc4cnccc4N4CCC[C@H](N)C4)n3n2)c1 [Example 89, (S)-3-(7-((4-(3-aminopiperidin-1-yl)pyridin-3-yl)amino)imidazo[1,5-b]pyridazin-2-yl)-4-fluoro-N,N-dimethylbenzamide tetra(2,2,2-trifluoroacetate)] |  |
| 6.5 | 2.2 | 3440 |  |  |  |  | N[C@H]1CCCN(c2ccccc2Nc2ncc3ccc(-c4c(F)cccc4F)nn23)C1 [Example 73, (S)-N-(2-(3-aminopiperidin-1-yl)phenyl)-2-(2,6-difluorophenyl)imidazo[1,5-b]pyridazin-7-amine] |  |
| 54.2 | 7.7 |  |  |  |  | 10200 | C[C@@H]1C[C@H](N)CN(c2ccncc2Nc2ncc3ccc(-c4ccccc4F)nn23)C1 (single isomer, unassigned) [Example 47, N-(4-((cis)-3-amino-5-methylpiperidin-1-yl)pyridin-3-yl)-2-(2-fluorophenyl)imidazo[1,5-b]pyridazin-7-amine tris(2,2,2-trifluoroacetate)] |  |
|  |  |  | 77 | 8 | 6660 |  | N[C@H]1CCCN(c2ccncc2Nc2ncc3ccc(-c4cccnc4Cl)nn23)C1 [Example 6, N-(4-((3S)-3-amino-1-piperidinyl)-3-pyridinyl)-2-(2-chloro-3-pyridinyl)imidazo[1,5-b]pyridazin-7-amine (2,2,2-trifluoroacetate)] |  |
| 1.4 | 0.4 | 1630 |  |  |  |  | N[C@H]1C[C@H](C(F)(F)F)CN(c2ccncc2Nc2ncc3ccc(-c4c(F)cccc4F)nn23)C1 (racemic) [Example 61, rac-N-(4-((trans)-3-amino-5-(trifluoromethyl)piperidin-1-yl)pyridin-3-yl)-2-(2,6-difluorophenyl)imidazo[1,5-b]pyridazin-7-amine bis(2,2,2-trifluoroacetate)] |  |
| 0.5 | 0.2 | 185 |  |  |  |  | N[C@H]1CCCN(c2ccncc2Nc2ncc3ccc(-c4cc(C(=O)NC5CC5)ccc4F)nn23)C1 [Example 74, 3-(7-((4-((3S)-3-amino-1-piperidinyl)-3-pyridinyl)amino)imidazo[1,5-b]pyridazin-2-yl)-N-cyclopropyl-4-fluorobenzamide] |  |

| SMILES | IC50 [1, 4] [nM] | IC50 [2, 5] [nM] | IC50 [3, 6] [nM] | IC50 [1, 7] [nM] | IC50 ([2]; read-out: Pim_1_IC50) [nM] | IC50 [3, 8] [nM] | IC50 ([3]; tris(2,2,2-trifluoroacetate), read-out: KMS-12-BM IC50 IP) [nM] | IC50 ([1]; read-out: Pim-2 IC50 IP) [nM] |
| --- | --- | --- | --- | --- | --- | --- | --- | --- |
| N[C@H]1CCCN(c2ccncc2Nc2nnc3ccc(-c4ncccc4F)nn23)C1 [Example 91, N-(4-((3S)-3-amino-1-piperidinyl)-3-pyridinyl)-6-(3-fluoro-2-pyridinyl)[1,2,4]triazolo[4,3-b]pyridazin-3-amine bis(2,2,2-trifluoroacetate)] |  | 5.6 | 11300 |  |  |  |  | 30.5 |
